From PubChem BioAssay (NCI) come the findings set out here.

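Step 1: Grow cells in 96-well plates. Step 2: Expose to compound for 48 hours at 5 concentrations. Step 3: Interpolate endpoints linearly; if unreached, use highest concentration. GI50 = concentration required for 50% inhibition of growth. Definition used: TGI = concentration required for complete inhibition of growth.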

Holding throughout (experiment): NCI-60 cell line screen, 48 h
In assay [1] the test system is HCC-2998 colon.
Assay [2] deals with EKVX NSCLC.
Assay [3] concerns SW-620 colon.
Assay [4] deals with NCI-H460 lung.
In assay [5] the test system is UACC-257 melanoma.
In assay [6] the test system is OVCAR-5 ovarian.
The test system of assay [7] is SF-539 CNS.
Assay [8] deals with SK-OV-3 ovarian.
Assay [9] deals with LOX IMVI melanoma.
The test system of assay [10] is SK-MEL-5 melanoma.

Take `N#Cc1cccc(C2C3=C(COC3=O)N(CCO)c3cc4c(cc32)CCC4)c1` (stereo not given): the GI50 is 186 nM in [1]; 0.259 µM in assay [2]; 153 nM in assay [3]; 160 nM in assay [4]; over 50 µM in [5]; 237 nM in assay [6]. The GI50 in assay [7] was 112 nM; in [8], 215 nM; in assay [9], 292 nM; in assay [10], 146 nM. Moreover, the TGI in [1] is over 30.4 µM; in assay [2], over 50 µM; in [3] it was over 50 µM; in [4], 5.19 µM; in [5] it was over 50 µM; in assay [6], over 50 µM. The TGI in [7] is 0.356 µM; in assay [8], over 30.5 µM; in assay [9] it was over 44.9 µM; in [10], 2.87 µM.

Take `COc1cc2c3c(n(CCCN4CCSCC4)c(=O)c2cc1OC)-c1cc2c(cc1C3=O)OCO2`: the GI50 was 35100 nM in assay [1]; over 100 µM in assay [2]; 96800 nM in [3]; 49700 nM in [4]; over 100 µM in assay [5]; 53600 nM in [6]. The GI50 is 18200 nM in [7], 88100 nM in assay [8], over 100000 nM in assay [9] and over 100000 nM in [10]. Also, the TGI in [1], in assay [2], in assay [3], in assay [4], in assay [5] and in assay [6] was over 100 µM in each case. The TGI in assay [7] is 34.5 µM; in [8] it was over 100 µM; in assay [9] it was over 100 µM; in [10], over 100 µM.

Turning to `NNC(=O)N/N=C1\CNC(=O)C(=O)C1c1nc2ccccc2s1` (stereo not given), the TGI in [1], in [2], in assay [3], in [4], in [5] and in assay [6] was over 100 µM each time. Moreover, the TGI in assay [7], in assay [8], in [9] and in assay [10] was over 100 µM throughout.

As for `Nc1c(C(=O)Nc2ccccn2)sc2nc3c(cc12)CCCCCC3`, the GI50 in [1] is 1610 nM; in [2], 4.1 µM; in assay [3], 389 nM; in [4], 1120 nM; in assay [5] it was 7.88 µM; in [6] it was 2670 nM. The GI50 in [7] is 580 nM; in [8], 1910 nM; in [9], 2970 nM; in [10] it was 906 nM. The TGI in assay [1] is 33.1 µM; in [2], 23.3 µM; in [3] it was 22.7 µM; in [4] it was 6.62 µM; in assay [5] it was 30.7 µM; in assay [6] it was 17.9 µM. The TGI in [7] is 3.07 µM; in assay [8], 15.2 µM; in [9], 41.9 µM; in assay [10], 7.22 µM.

With `Nc1n[nH]c2ccc([C@@H]3Nc4c(F)cc5[nH]ncc5c4[C@H]4C5CCC(C5)[C@@H]34)cc12` (stereo not given in full), the GI50 in assay [1] is 390 nM; in assay [2], 0.632 µM; in [3], 318 nM; in assay [4], 352 nM; in [5] it was 7.78 µM; in assay [6] it was 612 nM. The GI50 is 157 nM in [7], 686 nM in [8], 539 nM in assay [9] and 600 nM in assay [10]. Besides, the TGI in assay [1] was 22.2 µM; in assay [2], over 71.5 µM; in assay [3], over 49.1 µM; in [4], over 31.9 µM; in assay [5], over 79.3 µM; in assay [6] it was over 55.7 µM. Moreover, the TGI is 0.598 µM in assay [7], over 58.2 µM in assay [8], 23.9 µM in assay [9] and 4.94 µM in [10].

Consider `O=[N+]([O-])c1ccc(/C=C\c2ccc3c(c2)OCO3)c([N+](=O)[O-])c1`, for which the TGI was 27.6 µM in [1]; 28.1 µM in assay [2]; 41.6 µM in [3]; 54.5 µM in assay [4]; 32 µM in assay [5]; 35.5 µM in [6]. In addition, the TGI in assay [7] turned out to be 39.1 µM; in [8], 35.4 µM; in assay [9], 27 µM; in assay [10], 38.9 µM.

As to `Cc1ccc(O)cc1Nc1ccnc2cc(-c3ccccn3)ccc12`, the GI50 is 3890 nM in [1]; 3.61 µM in assay [2]; 4020 nM in [3]; 3650 nM in assay [4]; 3.09 µM in [5]; 2980 nM in assay [6]. For the same molecule, the GI50 in assay [7] was 3080 nM; in [8] it was 1980 nM; in [9] it was 2260 nM; in assay [10], 3600 nM. In addition, the TGI in [1] was 7.51 µM; in assay [2], 17.3 µM; in [3], 7.65 µM; in [4], 7.4 µM; in assay [5], 6.25 µM; in assay [6], 9.21 µM. Further, the TGI was determined as 6.68 µM in assay [7], 6.3 µM in assay [8], 5.71 µM in assay [9] and 7.14 µM in assay [10].

In the case of `CC/C(=C(/c1ccc(/C=C/C(=O)O)cc1)c1ccc2[nH]ncc2c1)c1ccc(F)cc1Cl`, the GI50 was 13800 nM in assay [1]; 13.2 µM in assay [2]; 12000 nM in [3]; 10700 nM in assay [4]; 17.4 µM in assay [5]; 17500 nM in assay [6]. Moreover, the GI50 was 7840 nM in assay [7], 16700 nM in assay [8], 14500 nM in assay [9] and 8350 nM in [10]. Also, the TGI in [1] is 29.8 µM; in assay [2] it was 32.3 µM; in [3], 28.5 µM; in assay [4], 27.7 µM; in [5], 43.2 µM; in [6] it was 35.9 µM. In addition, the TGI in assay [7] came to 21.6 µM; in [8] it was 30.8 µM; in assay [9], 39.6 µM; in [10], 21.4 µM.
